Assay [1] concerns Trypanosoma brucei rhodesiense. Nature of the assay: Antitrypanosomal activity against Trypanosoma brucei rhodesiense STIB900 infected in NMRI mouse assessed as survival days at 5 mg/kg, ip. In kind it is functional. Conditions: route intraperitoneal.
Assay [2] concerns Trypanosoma brucei rhodesiense. To be noted: dose 20 mg/kg; route intraperitoneal.
Description: Antitrypanosomal activity against Trypanosoma brucei rhodesiense STIB900 infected in NMRI mouse assessed as survival days at 20 mg/kg, ip
The test system of assay [3] is Trypanosoma brucei rhodesiense. Description: Antitrypanosomal activity against Trypanosoma brucei rhodesiense STIB900 infected in NMRI mouse assessed as survival at 5 mg/kg, ip. The assay is classed as functional, organism-based. Also on record: dose 5 mg/kg.
Assay [4] concerns Trypanosoma brucei rhodesiense. Description: Antitrypanosomal activity against Trypanosoma brucei rhodesiense STIB900. The assay is classed as functional, organism-based.
The subject of another assay is Plasmodium falciparum. Description: Antiplasmodial activity against Plasmodium falciparum K1. The assay is classed as functional, organism-based.
The subject of assay [5] is Trypanosoma brucei rhodesiense. Description: Antitrypanosomal activity against Trypanosoma brucei rhodesiense STIB900 infected in NMRI mouse assessed as survival at 20 mg/kg, ip. The assay is classed as functional, organism-based. Also on record: dose 20 mg/kg.

Activity calls are given as the source filed them. The rule behind the calls is not given here. Bounds are passed on as bounds.

In general, IC50 refers to the midpoint of a concentration-inhibition curve.

As to `N=C(N)c1ccc(-c2ccc(-c3ccc(C(=N)N)cc3)o2)cc1` [FURAMIDINE], the Survival was over 46 days in assay [1] and over 57.75 days in assay [2].
On to `N=C(N)c1ccc(-c2ccc(-c3ccc(C(=N)N)nc3)cc2)cc1`, for which the outcome in assay [3] was inactive. The Survival in assay [1] is over 48.75 days.
`N=C(N)c1ccc(-c2cnc(-c3ccc(C(=N)N)cc3)nc2)cc1`: the outcome in assay [3] was inactive. In assay [1], the Survival is 23.5 days.
For `N=C(N)c1ccc(-c2ccc(-c3ccc(C(=N)N)nc3)cc2)cn1`, in that order: “inactive” and over 51.5 days.
For `N=C(N)c1ncc(-c2ccc(-c3cnc(C(=N)N)nc3)cc2)cn1`, the IC50 was found to be 6 nM in assay [4] and 0.6 nM in the assay with Plasmodium falciparum. The Survival in assay [1] was over 43.25 days.
In the assay with Plasmodium falciparum, `N=C(N)c1ccc(-c2ccc(-c3ccc(C(=N)N)cn3)cn2)cc1` displayed an IC50 of 2.5 nM. Besides, the Survival in assay [1] is over 60 days.
With `N=C(N)c1ccc(-c2ccc(-c3ccc(C(=N)N)cn3)o2)cc1`, the result in assay [5] was Active. The figures for the Survival in assay [1] and in assay [2] were over 54.5 days and over 60 days, respectively.
As to `N=C(N)c1ccc(-c2ccc(-c3ccc(C(=N)N)cc3)nc2)cc1`, the IC50 is 2 nM in assay [4] and 10 nM in the assay on Plasmodium falciparum. For the same molecule, the Survival in assay [1] is over 42 days.
For `N=C(N)c1ccc(-c2ccc(-c3ccc(C(=N)N)cn3)cc2)nc1`, in that order: 47 nM, 10.1 nM and over 60 days.
`N=C(N)c1ccc(-c2ccc(-c3cnc(C(=N)N)cn3)cn2)cc1` registered an IC50 in the assay on Plasmodium falciparum of 5.7 nM. The Survival in assay [1] was over 31.75 days.
With `N=C(N)c1ccc(-c2ccc(-c3ccc(C(=N)N)nc3)cn2)cc1`, the 50% inhibitory concentration (IC50) in assay [4] was 6 nM; in the assay on Plasmodium falciparum, 1.1 nM. The Survival in assay [1] is over 60 days.
For `N=C(N)c1ccc(-c2ccc(-c3ccc(C(=N)N)cc3)nn2)cc1`, in that order: 14 nM, 1.3 nM and over 49.25 days.
As for `N=C(N)c1ccc(-c2cnc(-c3ccc(C(=N)N)cc3)cn2)cc1`, the IC50 in assay [4] is 18 nM; with Plasmodium falciparum, 0.4 nM. Besides, the result in assay [3] was inactive. Besides, in assay [1], the Survival was found to be 36.5 days.
As for `N=C(N)c1ccc(-c2ccc(-c3ccc(C(=N)N)cc3)cc2)cc1`, the IC50 in assay [4] is 5 nM; with Plasmodium falciparum, 1.4 nM. Also, the Survival in assay [2] was over 47.75 days.
As to `N=C(N)c1ccc(-c2ccc(-c3ccc(C(=N)N)cn3)cc2)cc1`, in the assay on Plasmodium falciparum, the IC50 turned out to be 1.3 nM. The Survival in assay [1] was over 56 days.
With `N=C(N)c1ccc(-c2ccc(-c3cnc(C(=N)N)nc3)cn2)cc1`, the IC50 in assay [4] turned out to be 12 nM; with Plasmodium falciparum, 1.5 nM. Moreover, in assay [3], the outcome was inactive. Also, the Survival in assay [1] is over 43.25 days.
Turning to `N=C(N)c1ccc(-c2ccc(-c3cnc(C(=N)N)nc3)cc2)cc1`, the half-maximal inhibitory concentration (IC50) amounted to 4 nM in assay [4] and 0.6 nM with Plasmodium falciparum. Besides, the Survival in assay [1] was over 46.25 days.

The values above are taken from ChEMBL document CHEMBL1152566, “Synthesis and activity of azaterphenyl diamidines against Trypanosoma brucei rhodesiense and Plasmodium falciparum” (Bioorg Med Chem, 2009).
